Counter-ions that a name gives are not always drawn. Like-named read-outs stand apart in the source and are kept apart here.
Experiments:
[1] = tested on: EBOV-Zaire GP/HIV-luc pseudovirus; assay: organism not typed; assay type: cell-based, Zaire ebolavirus; conditions: for EC50: HEK-293T, read-out: half-maximum effect concentration (EC50) against EBOV
[2] = tested on: MARV-GP/HIV-luc pseudovirus; assay: microbe, parasite or virus in culture; assay type: cell-based; conditions: read-out: EC50 against the Marburg virus entering the host
[3] = tested on: LASV-GP/HIV-luc pseudovirus; assay: organism not typed; assay type: cell-based; conditions: read-out: EC50 against the Lassa virus entering the host
[4] = tested on: 293T cells
[5] = tested on: EBOV-Zaire GP/HIV-luc pseudovirus; assay type: cell-based, Zaire ebolavirus

Row | SMILES | inhibition rate on the EBOV-Zaire GP/HIV-luc pseudovirus [1] | EC50 ([1]; 48 h) [nM] | EC50 [1] [nM] | EC50 [2] [nM] | EC50 [3] [nM] | effect on cell activity (CCK-8, OD 450 nm) [4] | inhibition effect on the virus when added at 6 h (TOA) [5]
1 | COc1cc2c3cc1Oc1c(OC)c(OC)cc4c1[C@@H](Cc1ccc(O)c(c1)Oc1ccc(cc1)C[C@@H]3N(C)CC2)N(C)CC4 [berbamine dihydrochloride] | over 80% | 490 | 490 | 990 | 2640 | no significant effect | 
2 | O=C1Nc2ccc(Cl)cc2[C@@](C#CC2CC2)(C(F)(F)F)O1 [efavirenz] |  |  |  |  |  |  | still had an inhibition effect

Source: patent US12329754B2 (priority 2018, dated 2025)
